Experimental data published in ChEMBL document CHEMBL1201862, “PubChem BioAssay data set” (2004).
Each block holds one compound with its values, some of them ahead of it. The source made the active and inactive calls.

Columns and labels:
Format in all cases: functional
CHO-K1 = experiment: (§1) Counterscreen for antagonists of the orexin 1 receptor (OX1R; HCRTR1): Homogeneous time resolved fluorescence (HTRF)-based cell-based dose response assay to identify antagonists of the parental CHO-K1 cell line. [Related pubchem assays (depositor defined):AID434989, AID435008, AID463079, AID485270, AID492963, AID492964, AID492965, AID493232, AID504699, AID504701]; conditions: Cricetulus griseus
[1] = as §1, with “Fluorescence-based” for “Homogeneous time resolved fluorescence (HTRF)-based”, “cell-based high throughput” for “cell-based”, “CHO” for “CHO-K1”
[2] = target: T1, Orexin/Hypocretin receptor type 1 (Homo sapiens, UniProt O43613); experiment: Homogeneous Time Resolved Fluorescence (HTRF)-based cell-based high throughput dose response assay for antagonists of the orexin 1 receptor (OX1R; HCRTR1). [Related pubchem assays (depositor defined):AID434989, AID435008, AID463079, AID485270, AID492963, AID492964, AID492965, AID493232, AID504717, AID504718]
T1 sequence (O43613 whole entry): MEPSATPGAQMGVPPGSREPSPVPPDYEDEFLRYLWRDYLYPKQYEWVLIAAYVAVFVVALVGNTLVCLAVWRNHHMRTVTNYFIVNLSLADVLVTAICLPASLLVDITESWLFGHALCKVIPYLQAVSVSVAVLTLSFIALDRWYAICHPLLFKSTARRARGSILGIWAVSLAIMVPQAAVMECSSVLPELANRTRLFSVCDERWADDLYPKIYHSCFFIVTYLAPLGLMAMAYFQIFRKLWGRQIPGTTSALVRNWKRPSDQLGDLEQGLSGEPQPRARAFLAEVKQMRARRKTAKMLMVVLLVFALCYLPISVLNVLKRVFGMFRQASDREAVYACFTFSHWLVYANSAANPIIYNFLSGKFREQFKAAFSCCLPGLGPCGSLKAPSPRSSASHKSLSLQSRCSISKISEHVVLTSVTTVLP

[3] = target: T1, Orexin/Hypocretin receptor type 1; experiment: Fluorescence-based cell-based high throughput dose response assay for antagonists of the orexin 1 receptor (OX1R; HCRTR1). [Related pubchem assays (depositor defined):AID434989, AID435008, AID463079, AID485270, AID492963, AID492964, AID492965, AID493232, AID504717, AID504718]
Orexin receptor type 2 [4] = target: T2, Orexin receptor type 2 (Homo sapiens, UniProt O43614); experiment: Counterscreen assay for antagonists of the orexin 1 receptor (OX1R; HCRTR1): Fluorescence-based cell-based dose response assay for antagonists of the orexin 2 receptor (OX2R; HCRTR2), run by assay provider.
T2 sequence (O43614 whole entry): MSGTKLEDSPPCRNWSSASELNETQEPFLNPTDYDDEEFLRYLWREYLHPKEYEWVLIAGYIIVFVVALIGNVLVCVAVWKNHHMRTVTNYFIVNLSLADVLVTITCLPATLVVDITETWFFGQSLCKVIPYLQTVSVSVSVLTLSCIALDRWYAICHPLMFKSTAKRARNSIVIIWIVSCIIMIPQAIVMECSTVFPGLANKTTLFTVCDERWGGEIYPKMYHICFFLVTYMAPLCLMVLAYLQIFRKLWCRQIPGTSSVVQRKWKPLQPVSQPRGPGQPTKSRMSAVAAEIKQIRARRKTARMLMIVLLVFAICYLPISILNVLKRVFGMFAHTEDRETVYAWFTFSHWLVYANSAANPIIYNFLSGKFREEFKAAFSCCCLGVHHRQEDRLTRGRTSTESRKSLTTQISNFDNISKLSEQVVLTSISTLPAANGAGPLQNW

Orexin receptor type 2 [5] = target: T2, Orexin receptor type 2; experiment: Counterscreen assay for antagonists of the orexin 1 receptor (OX1R; HCRTR1): Homogeneous Time Resolved Fluorescence (HTRF)-based cell-based dose response assay for antagonists of the orexin 2 receptor (OX2R; HCRTR2), run by assay provider.
[6] = target: ALK tyrosine kinase receptor (Homo sapiens, UniProt Q9UM73);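 note: ALK tested as one member of a kinase panel screen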
Sequence of ALK tyrosine kinase receptor (Q9UM73 whole entry): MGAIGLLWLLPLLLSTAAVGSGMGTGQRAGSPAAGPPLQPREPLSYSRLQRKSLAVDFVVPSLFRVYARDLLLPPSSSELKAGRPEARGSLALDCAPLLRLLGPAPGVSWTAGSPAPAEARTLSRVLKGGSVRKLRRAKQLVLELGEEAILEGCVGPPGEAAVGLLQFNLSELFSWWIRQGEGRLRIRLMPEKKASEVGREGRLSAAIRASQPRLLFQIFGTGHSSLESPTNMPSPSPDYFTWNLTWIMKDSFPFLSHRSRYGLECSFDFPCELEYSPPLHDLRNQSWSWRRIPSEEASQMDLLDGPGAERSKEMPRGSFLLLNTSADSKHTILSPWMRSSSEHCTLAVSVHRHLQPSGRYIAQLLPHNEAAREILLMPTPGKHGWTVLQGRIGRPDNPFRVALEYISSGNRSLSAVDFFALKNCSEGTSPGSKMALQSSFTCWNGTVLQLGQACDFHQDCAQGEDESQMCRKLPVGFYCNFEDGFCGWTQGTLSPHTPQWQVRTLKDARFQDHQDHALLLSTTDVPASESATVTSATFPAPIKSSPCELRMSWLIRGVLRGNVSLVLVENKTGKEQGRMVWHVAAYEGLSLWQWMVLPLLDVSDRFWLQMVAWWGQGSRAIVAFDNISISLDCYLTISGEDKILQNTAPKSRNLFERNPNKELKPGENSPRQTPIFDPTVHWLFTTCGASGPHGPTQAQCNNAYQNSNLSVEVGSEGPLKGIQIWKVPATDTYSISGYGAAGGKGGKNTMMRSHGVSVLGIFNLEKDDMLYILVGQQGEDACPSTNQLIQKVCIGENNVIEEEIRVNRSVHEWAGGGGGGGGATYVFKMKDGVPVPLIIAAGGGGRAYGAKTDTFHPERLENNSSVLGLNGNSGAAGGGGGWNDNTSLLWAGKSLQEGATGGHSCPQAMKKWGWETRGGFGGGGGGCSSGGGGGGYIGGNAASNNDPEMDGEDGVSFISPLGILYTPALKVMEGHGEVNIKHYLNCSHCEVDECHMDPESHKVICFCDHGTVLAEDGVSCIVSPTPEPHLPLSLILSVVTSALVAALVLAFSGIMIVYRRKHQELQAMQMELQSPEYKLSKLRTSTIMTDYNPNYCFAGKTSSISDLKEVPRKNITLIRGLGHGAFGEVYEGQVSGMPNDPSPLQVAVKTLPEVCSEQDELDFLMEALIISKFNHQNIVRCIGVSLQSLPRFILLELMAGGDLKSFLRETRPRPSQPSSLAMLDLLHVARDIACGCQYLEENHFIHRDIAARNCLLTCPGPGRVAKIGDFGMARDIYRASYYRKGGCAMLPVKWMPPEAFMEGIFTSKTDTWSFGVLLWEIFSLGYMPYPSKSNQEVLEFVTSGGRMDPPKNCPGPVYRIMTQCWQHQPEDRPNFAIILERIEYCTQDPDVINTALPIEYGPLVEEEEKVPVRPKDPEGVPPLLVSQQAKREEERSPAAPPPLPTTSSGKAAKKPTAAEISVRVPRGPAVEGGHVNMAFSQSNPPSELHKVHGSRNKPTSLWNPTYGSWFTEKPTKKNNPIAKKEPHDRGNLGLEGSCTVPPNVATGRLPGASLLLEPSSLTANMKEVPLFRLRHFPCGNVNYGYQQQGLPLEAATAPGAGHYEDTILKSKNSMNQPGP

[7] = target: Cyclin-dependent kinase 19 (Homo sapiens, UniProt Q9BWU1); experiment: Navigating the Kinome. Panel member name: CDC2L6
Sequence of Cyclin-dependent kinase 19 (Q9BWU1 whole entry): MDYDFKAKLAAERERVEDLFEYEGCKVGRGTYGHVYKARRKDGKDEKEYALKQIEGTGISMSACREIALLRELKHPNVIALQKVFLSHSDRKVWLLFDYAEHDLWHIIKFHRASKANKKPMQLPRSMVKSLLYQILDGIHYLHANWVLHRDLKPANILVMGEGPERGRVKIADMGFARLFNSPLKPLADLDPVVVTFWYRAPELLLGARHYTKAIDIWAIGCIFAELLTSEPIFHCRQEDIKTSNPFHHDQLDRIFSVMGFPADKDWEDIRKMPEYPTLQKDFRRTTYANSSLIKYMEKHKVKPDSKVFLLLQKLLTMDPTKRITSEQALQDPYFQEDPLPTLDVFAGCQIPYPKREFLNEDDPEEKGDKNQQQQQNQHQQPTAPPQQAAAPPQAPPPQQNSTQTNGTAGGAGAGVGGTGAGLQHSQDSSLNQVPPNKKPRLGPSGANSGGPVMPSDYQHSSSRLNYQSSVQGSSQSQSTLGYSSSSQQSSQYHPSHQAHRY

Phospholipase D1 = Phospholipase D1 (Homo sapiens, UniProt Q13393); experiment: PLD1 inhibitor potency in cells, dose response (AID 602151);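 note: cellular PLD1 assay in Calu-1 cells stimulated with PMA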
Phospholipase D2 = Phospholipase D2 (Homo sapiens, UniProt O14939); experiment: PLD2 inhibitor potency in cells, dose response (AID 602147);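 note: cellular assay in HEK293 cells overexpressing GFP-tagged PLD2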
Sequence of Phospholipase D2 (O14939 whole entry): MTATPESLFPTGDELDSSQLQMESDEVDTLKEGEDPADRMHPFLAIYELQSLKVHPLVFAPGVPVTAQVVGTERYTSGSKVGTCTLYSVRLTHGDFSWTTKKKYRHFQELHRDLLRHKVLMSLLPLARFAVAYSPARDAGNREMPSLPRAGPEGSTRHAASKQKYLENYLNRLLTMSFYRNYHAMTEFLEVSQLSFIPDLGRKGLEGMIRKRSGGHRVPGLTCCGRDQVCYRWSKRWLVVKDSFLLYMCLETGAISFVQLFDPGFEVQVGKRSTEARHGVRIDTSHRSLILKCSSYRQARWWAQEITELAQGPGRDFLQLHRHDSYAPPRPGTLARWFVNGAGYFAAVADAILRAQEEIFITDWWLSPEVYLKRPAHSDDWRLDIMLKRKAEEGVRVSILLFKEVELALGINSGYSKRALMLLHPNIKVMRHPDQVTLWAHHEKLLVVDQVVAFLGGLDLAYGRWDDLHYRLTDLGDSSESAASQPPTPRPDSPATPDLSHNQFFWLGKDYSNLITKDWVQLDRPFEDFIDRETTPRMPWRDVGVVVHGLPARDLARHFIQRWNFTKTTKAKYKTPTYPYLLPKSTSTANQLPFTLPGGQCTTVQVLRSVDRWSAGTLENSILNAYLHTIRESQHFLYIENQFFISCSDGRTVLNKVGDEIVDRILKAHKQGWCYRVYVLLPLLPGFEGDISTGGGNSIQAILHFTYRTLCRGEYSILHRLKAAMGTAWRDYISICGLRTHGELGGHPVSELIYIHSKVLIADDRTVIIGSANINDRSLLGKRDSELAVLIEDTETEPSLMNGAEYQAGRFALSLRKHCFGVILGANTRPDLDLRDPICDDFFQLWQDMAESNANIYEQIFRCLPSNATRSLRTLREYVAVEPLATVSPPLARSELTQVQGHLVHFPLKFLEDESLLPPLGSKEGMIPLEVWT

[8] = target: Sphingosine 1-phosphate receptor 2 (Homo sapiens, UniProt O95136); experiment: Late-stage fluorescence-based dose-response cell-based counterscreen assay to identify agonists of the Sphingosine 1-Phosphate Receptor 3 (S1P3): Sphingosine 1-Phosphate Receptor 2 (S1P2) agonist assay.
Sequence of Sphingosine 1-phosphate receptor 2 (O95136 whole entry): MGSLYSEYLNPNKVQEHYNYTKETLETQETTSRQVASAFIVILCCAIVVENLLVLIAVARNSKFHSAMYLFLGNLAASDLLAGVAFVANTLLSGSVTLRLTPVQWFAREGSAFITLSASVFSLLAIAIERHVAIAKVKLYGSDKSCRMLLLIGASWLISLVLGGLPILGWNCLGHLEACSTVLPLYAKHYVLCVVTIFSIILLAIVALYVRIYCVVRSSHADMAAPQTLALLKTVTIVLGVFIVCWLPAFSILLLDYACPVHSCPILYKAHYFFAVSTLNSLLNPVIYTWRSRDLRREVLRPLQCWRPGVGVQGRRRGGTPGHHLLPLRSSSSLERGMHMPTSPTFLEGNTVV

[9] = target: T3, Sphingosine 1-phosphate receptor 4 (Homo sapiens, UniProt O95977); experiment: Late-stage fluorescence-based dose-response cell-based counterscreen assay to identify agonists of the Sphingosine 1-Phosphate Receptor 3 (S1P3): Sphingosine 1-Phosphate Receptor 4 (S1P4) agonist assay.
T3 sequence (O95977 whole entry): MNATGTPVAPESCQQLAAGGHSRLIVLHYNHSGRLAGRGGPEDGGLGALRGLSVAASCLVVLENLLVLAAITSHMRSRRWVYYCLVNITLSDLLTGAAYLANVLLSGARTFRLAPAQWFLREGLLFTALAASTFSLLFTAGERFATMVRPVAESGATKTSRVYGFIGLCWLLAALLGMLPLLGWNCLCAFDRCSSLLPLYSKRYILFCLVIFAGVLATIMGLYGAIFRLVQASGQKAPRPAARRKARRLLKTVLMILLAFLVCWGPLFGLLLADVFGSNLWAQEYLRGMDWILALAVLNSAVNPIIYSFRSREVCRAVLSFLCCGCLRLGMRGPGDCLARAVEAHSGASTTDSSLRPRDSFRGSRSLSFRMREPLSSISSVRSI

Structure (SMILES): N#CCSc1nc(-c2ccccc2)nc2ccccc12
IC50 (CHO-K1): > 66.3 µM (inactive)
IC50 [1]: > 49.8 µM (inactive)
IC50 [2]: 2.84 µM (active)
IC50 [3]: > 49.8 µM (inactive)
IC50 (Orexin receptor type 2 [4]): > 88.8 µM (inactive)
IC50 (Orexin receptor type 2 [5]): > 50 µM (inactive)

Ki [6]: 3.16 µM (active)
Ki [7]: 3.16 µM (active)
Structure (SMILES): CN(C)CCc1ccc(Nc2nccc(-c3c(-c4cccc(C(O)CO)c4)nc4ccccn34)n2)cc1 (configuration not stated)

Structure (SMILES): C[C@@H](CN1CCC(n2c(=O)[nH]c3ccccc32)CC1)NC(=O)c1ccc2ncccc2c1
IC50 (Phospholipase D1): 0.017 µM (active)
IC50 (Phospholipase D2): 4.1 µM (active)

EC50 [8]: > 50 µM (inactive)
EC50 [9]: > 50 µM (inactive)
Structure (SMILES): O=C(c1cc(-c2ccccc2)on1)N(C1CCCCC1)C1CCCC1
